Data published in patent US8557737B2, “Methods of altering poppy characteristics” (priority 2005, dated 2013).
Where two headings read alike, the source gives them in different places.

Legend:
poppy crops [1] = experiment: Example 11: field trial, metsulfuron-methyl, Sunny and metsulfuron-methyl+Sunny at row cover, early run-up, bud-emergence/early hook, morphine crop; assay type: in vivo, Papaver somniferum; conditions: Trt 4: COMPOUND 1 120 MG/HA + PULSE .2% V/V at RC, ERU and BE/EH
Description: (§1) All trials were conducted on poppy crops. Seed was treated with Thiram (5.6 g of Thiram 800/kg seed) and Apron (4 g/kg) and sown at a rate of approximately 750 g/ha. Fertilisers were applied at sowing. Most commonly, either 50:50 lime:superphosphate/triple superphosphate at 125 kg/ha, or lime:superphosphate at 250 kg/ha, were mixed with seed and drilled at a depth of 15 mm. In the same operation, NPK (nitrogen:phosphorus:potassium), at various rates, was banded 75 mm below the seed, unless otherwise stated. All crops were subjected to herbicide sprays for weed control, fungicide sprays for disease control, insecticide sprays if appropriate and were irrigated as required.
(§2) All spray applications were made with a precision sprayer, using Silvan Lurmark flat-fan, low-drift nozzles (LD110-0015). Spray equipment was calibrated to deliver 153 L water/ha.
(§3) At harvest, a 2 m×4 m quadrat was placed in each plot (3 m×6 m, unless otherwise stated) and capsules hand-picked from this area. Capsules were broken up, seed and capsule material separated and weighed. Capsule moisture readings were taken with a moisture meter. Alkaloid yield data were calculated on Pesticide Research Manager (version 5 for Windows) using the formulae below. Briefly, capsule weight was adjusted for moisture to a dry weight, 5% of seed weight was added to this (this amount of capsule material regularly occurs in seed samples after processing) to give a capsule weight per plot. Seed weight was adjusted to 95% of crude weight. Straw weights were determined by multiplying dry capsule weight by 1.3 (estimated amount of stem material in a commercial harvest) and adjusted to 11% moisture. When Lontrel was applied to crops exact capsule and seed weight data were entered. Analyses of variance and a Multiple Range Test were performed on data using Pesticide Research Manager. Significant differences (P=0.05) between treatments are denoted by different lower case letters adjacent to treatment means in the tables of results.
Trial to evaluate applications of metsulfuron-methyl (Compound 1), Sunny and metsulfuron-methyl+Sunny, in a morphine crop. Treatment sprays were applied to crop at row cover, early run-up and bud-emergence/early hook. Plant heights were measured at green capsule stage.

poppy crops [2] = experiment: Example 17: field trial, triasulfuron, mesosulfuron-methyl and metsulfuron-methyl at early run-up and mid-late run-up, morphine crop; assay type: in vivo, Papaver somniferum; conditions: Trt 2: COMPOUND 1 120 MG/HA + PULSE .2% V/V at ERU and M-LRU
Description: as §1, §2
as §3, with “Manager.” for “Manager. Significant differences (P=0.05) between treatments are denoted by different lower case letters adjacent to treatment means in the tables of results.”
Trial to evaluate applications of triasulfuron, mesosulfuron-methyl and metsulfuron-methyl, in a morphine crop. Treatment sprays were applied to with crop at early run-up and mid-late run-up, respectively. Plant heights were measured on 6 weeks after last application and lodging was assessed at capsule harvest.

poppy crops [3] = system: poppy crops; set-up: species or system Papaver somniferum; conditions: in vivo
poppy crops [4] = experiment: Example 12: field trial, metsulfuron-methyl, Sunny and metsulfuron-methyl+Sunny at row cover, early run-up, late run-up, morphine crop; assay type: in vivo, Papaver somniferum; conditions: Trt 3: COMPOUND 1 120 MG/HA + PULSE .2% V/V at RC, ERU and LRU
Description: as §1, §2, §3
Trial to evaluate applications of metsulfuron-methyl (Compound 1), Sunny and metsulfuron-methyl+Sunny, in a morphine crop. Treatment sprays were applied to crop at row cover, early run-up and late run-up. Plant heights were measured at end of flowering.

poppy crops [5] = experiment: Example 10: field trial, triasulfuron and metsulfuron-methyl, morphine crop; assay type: in vivo, Papaver somniferum; conditions: COMPOUND 1 120 MG/HA + PULSE .2 % V/V at GC, RU and BE
Description: as §1, §2, §3
[…] Treatment sprays were applied to crop at ground cover, mid run-up and bud-emergence, respectively.

poppy crops [6] = experiment: Example 6: field trial, one or two applications of metsulfuron-methyl after Sunny versus metsulfuron-methyl alone; assay type: in vivo, Papaver somniferum; conditions: COMPOUND 1 120 MG/HA + PULSE .2 % V/V at ERU and at BE (two applications, alone)
Description: as §1, §2, §3
Trial to evaluate one or two applications of 120 mg/ha metsulfuron-methyl (Compound 1) after 1 L/ha Sunny, and compare with two applications of metsulfuron-methyl alone. Sunny was applied with crop at 12-14 leaf, metsulfuron-methyl to crop at 12-14 leaf, early run-up and bud-emergence stages. Plant heights were measured at early-full flower and percent lodging was measured on the day of capsule harvest.

poppy crops [7] = experiment: Example 19: field trial, sulfosulfuron, thifensulfuron-methyl and metsulfuron-methyl, morphine crop; assay type: in vivo, Papaver somniferum; conditions: 120 MG/HA + PULSE .2 % V/V, applied at M-LRU and LRU-BE
Description: as §1, §2
as §3, with “Manager.” for “Manager. Significant differences (P=0.05) between treatments are denoted by different lower case letters adjacent to treatment means in the tables of results.”
Trial to evaluate applications of sulfosulfuron, thifensulfuron-methyl and metsulfuron-methyl, in a morphine crop. Treatment sprays were applied to crop at mid-late run-up and late-run-up/bud-emergence, respectively. Plant heights were measured some 10 weeks after the last application. Lodging was assessed at capsule harvest.

## COC(=O)c1ccccc1S(=O)(=O)NC(=O)Nc1nc(C)nc(OC)n1 [Compound 1, metsulfuron-methyl]
Poppy crops [1]
  CAPSULE/SEED RATIO: 8.488 a
  CROP WEIGHT: 3.22 d t/ha
  LODGING: 1.2 b %
  MORPHINE: 60.39 a kg/ha
  SEED: 267 c kg/ha
  STRAW: 2955 a kg/ha
  STRAW MORPHINE: 2.04 a %
Poppy crops [1]; height at green capsule stage
  HEIGHT: 99.2 a cm
Poppy crops [2]
  CAPS/SEED RATIO: 8.976 a
  CROP WEIGHT: 2.60 b t/ha
  MORPHINE: 49.48 a kg/ha
  SEED: 187 c kg/ha
  STRAW: 2343 a kg/ha
  STRAW MORPHINE: 2.11 c %
Poppy crops [2]; 6 weeks after last application
  PLANT HEIGHT: 97.0 c cm
Poppy crops [2]; at capsule harvest
  LODGING: 2.7 b %
Poppy crops [3]
  CAPSULE/SEED RATIO: 0.883 a
  MORPHINE: 26.32 c kg/ha
  PLANT HEIGHT: 67 c cm
  SEED: 1015 b kg/ha
  STRAW: 1255 c kg/ha
  STRAW MORPHINE: 2.09 b %
  YIELD: 2.27 c t/ha
Poppy crops [4]
  CAPS/SEED RATIO: 10.444 a
  CROP WEIGHT: 2.24 b t/ha
  MORPHINE: 47.11 b kg/ha
  SEED: 143 c kg/ha
  STRAW: 2099 a kg/ha
  STRAW MORPHINE: 2.24 c %
Poppy crops [4]; height at end of flowering
  HEIGHT: 83.4 bc cm
Poppy crops [5]
  CAPSULE/SEED RATIO: 11.957 a
  CROP WEIGHT: 1.86 a t/ha
  HEIGHT: 84.2 b cm
  MORPHINE: 39.63 a kg/ha
  SEED: 105 c kg/ha
  STRAW: 1757 a kg/ha
  STRAW MORPHINE: 2.25 a %
Poppy crops [6]
  CAPSULE/SEED RATIO: 6.140 a
  CROP WEIGHT: 2.46 c t/ha
  MORPHINE: 38.8 b kg/ha
  SEED: 269 c kg/ha
  STRAW: 2194 a kg/ha
  STRAW MORPHINE: 1.77 b %
Poppy crops [6]; measured at early-full flower
  PLANT HEIGHT: 77.4 cm·days
Poppy crops [6]; measured on the day of capsule harvest
  LODGING: 1.0 b %
Poppy crops [7]
  CAPSULE/SEED RATIO: 6.352
  CROP WEIGHT: 1.33 t/ha
  MORPHINE: 21.65 kg/ha
  SEED: 131 kg/ha
  STRAW: 1203 kg/ha
  STRAW MORPHINE %: 1.80%
Poppy crops [7]; measured some 10 weeks after last application
  PLANT HEIGHT: 72 cm
